In ChEMBL document CHEMBL5150045, “Structure-Guided Design of Halofuginone Derivatives as ATP-Aided Inhibitors Against Bacterial Prolyl-tRNA Synthetase” (J Med Chem, 2022):
Values after ≈ are worked out from the molar mass of the structure shown.

Tests used:
[1] = Inhibition of methicillin-resistant Staphylococcus aureus ProRS expressed in Escherichia coli assessed as generation of inorganic monophosphate by pre-transfer editing-based experiment
Staphylococcus aureus [2] = test: Inhibition of methicillin-resistant Staphylococcus aureus ProRS expressed in Escherichia coli assessed as change in melting temperature in presence of AMPPNP at 0.5 mM by fluorescence-based thermal shift assay
Homo sapiens = species on record: Homo sapiens; test: Inhibition of human ProRS expressed in Escherichia coli assessed as change in melting temperature in presence of AMPPNP at 0.5 mM by fluorescence-based thermal shift assay
Escherichia coli [3] = test: Antibacterial activity against Escherichia coli ATCC25922 assessed as prevention of visible growth by broth microdilution method; assay type: functional
Shigella flexneri = test: Antibacterial activity against Shigella flexneri CMCC51572 assessed as prevention of visible growth by broth microdilution method; assay type: functional
Salmonella typhi = test: Antibacterial activity against Salmonella typhi CMCC50094 assessed as prevention of visible growth by broth microdilution method; assay type: functional, Salmonella enterica subsp. enterica serovar Typhi; details: Salmonella enterica
Staphylococcus aureus [4] = test: Antibacterial activity against methicillin-resistant Staphylococcus aureus 252 assessed as prevention of visible growth by broth microdilution method; assay type: functional
Staphylococcus aureus [5] = test: Antibacterial activity against methicillin-resistant Staphylococcus aureus R3708 assessed as prevention of visible growth by broth microdilution method; assay type: functional
Staphylococcus aureus [6] = test: Antibacterial activity against Staphylococcus aureus ATCC29213 assessed as prevention of visible growth by broth microdilution method; assay type: functional
Staphylococcus aureus [7] = test: Antibacterial activity against Staphylococcus aureus ATCC25923 assessed as prevention of visible growth by broth microdilution method; assay type: functional
Staphylococcus aureus [8] = test: Bactericidal activity against methicillin-resistant Staphylococcus aureus 252 assessed as bacterial killing measured after 24 hrs incubation by CLSI method; assay type: functional; details: read-out: MBC99.9
Staphylococcus aureus [9] = test: Ratio of MBC99.9 for methicillin-resistant Staphylococcus aureus 252 to MIC for methicillin-resistant Staphylococcus aureus 252; assay type: functional
Staphylococcus aureus [10] = test: Resistance development in methicillin-resistant Staphylococcus aureus 252 assessed as fold increase in resistance after 15 days serial passage upto 256 ug/ml; assay type: functional; details: dose <= 256 µg/ml; time 15 day
Escherichia coli [11] = test: Resistance development in Escherichia coli ATCC25922 assessed as fold increase in resistance after 15 days serial passage upto 256 ug/ml; assay type: functional; details: dose <= 256 µg/ml; time 15 day
Escherichia coli [12] = test: Ratio of MBC99.9 for Escherichia coli ATCC25922 to MIC for Escherichia coli ATCC25922; assay type: functional

Compound | IC50 [1] [µM] | ΔTm (Staphylococcus aureus [2]) [°C] | ΔTm (Homo sapiens) [°C] | MIC (Escherichia coli [3]) [µg/mL] | MIC (Shigella flexneri) [µg/mL] | MIC (Salmonella typhi) [µg/mL] | MIC (Staphylococcus aureus [4]) [µg/mL] | MIC (Staphylococcus aureus [5]) [µg/mL] | MIC (Staphylococcus aureus [6]) [µg/mL] | MIC (Staphylococcus aureus [7]) [µg/mL] | MBC (Staphylococcus aureus [8]) [µg/mL] | Ratio (Staphylococcus aureus [9]) | fold change (FC) (Staphylococcus aureus [10]) | fold change (FC) (Escherichia coli [11]) | Ratio (Escherichia coli [12])
O=c1c2ccccc2ncn1CCC[C@@H]1CCCCN1 | > 100 | 0 | 4.2 | > 64 | > 64 | > 64 | > 64 | > 64 | > 64 | > 64 | – | – | – | – | –
O=C(C[C@@H]1CCCCN1)Cn1cnc2nccnc2c1=O | > 100 | 0 | 4.9 | > 64 | > 64 | > 64 | > 64 | > 64 | > 64 | > 64 | – | – | – | – | –
O=c1c2cc(Cl)c(Br)cc2ncn1CC(O)C[C@@H]1CCCCN1 (stereo not given in full) | > 100 | 0 | 11.9 | > 64 | > 64 | > 64 | > 64 | > 64 | > 64 | > 64 | – | – | – | – | –
O=C(C[C@@H]1CCCCN1)Cn1cnc2cc(Cl)c(Cl)cc2c1=O | 0.51 | 7.9 | 18.9 | 16 (≈ 45.2 µM) | 16 (≈ 45.2 µM) | 32 (≈ 90.3 µM) | 4 (≈ 11.3 µM) | 4 (≈ 11.3 µM) | 8 (≈ 22.6 µM) | 16 (≈ 45.2 µM) | 64 (≈ 181 µM) | 16 | – | – | –
O=C(C[C@@H]1CCCCN1)Cn1cnc2ccc(F)cc2c1=O | 8.2 | 6.3 | 17.9 | 16 (≈ 52.7 µM) | 16 (≈ 52.7 µM) | 32 (≈ 105 µM) | 32 (≈ 105 µM) | 32 (≈ 105 µM) | 32 (≈ 105 µM) | 32 (≈ 105 µM) | – | – | – | – | –
O=C(C[C@@H]1CCCCN1)Cn1cnc2cc(Br)c(Cl)cc2c1=O | 0.61 | 6.2 | 17.9 | 32 (≈ 80.3 µM) | 16 (≈ 40.1 µM) | 32 (≈ 80.3 µM) | 16 (≈ 40.1 µM) | 16 (≈ 40.1 µM) | 16 (≈ 40.1 µM) | 32 (≈ 80.3 µM) | – | – | – | – | –
Cc1cc2ncn(CC(=O)C[C@@H]3CCCCN3)c(=O)c2cc1C | 17.6 | 1.3 | 13.9 | > 64 | > 64 | > 64 | > 64 | > 64 | > 64 | > 64 | – | – | – | – | –
O=c1c2cc(Cl)c(Br)cc2ncn1CCC[C@@H]1CCCCN1 | 12.4 | 2.5 | 15.1 | 64 (≈ 166 µM) | 64 (≈ 166 µM) | 64 (≈ 166 µM) | 64 (≈ 166 µM) | 64 (≈ 166 µM) | 32 (≈ 83.2 µM) | 64 (≈ 166 µM) | – | – | – | – | –
O=C(C[C@@H]1CCCCN1)Cn1cnc2cccc(Cl)c2c1=O | 5.59 | 3 | 15.9 | > 64 | > 64 | > 64 | > 64 | > 64 | > 64 | > 64 | – | – | – | – | –
C[C@H]1COc2c(N3CCN(C)CC3)c(F)cc3c(=O)c(C(=O)O)cn1c23.C[C@H]1COc2c(N3CCN(C)CC3)c(F)cc3c(=O)c(C(=O)O)cn1c23.O [LEVOFLOXACIN] | – | – | – | – | – | – | – | – | – | – | – | – | 64 | – | –
O=C(C[C@@H]1CCCCN1)Cn1cnc2cc(C(F)(F)F)ccc2c1=O | 1.28 | 3.4 | 16.9 | > 64 | > 64 | > 64 | > 64 | > 64 | > 64 | > 64 | – | – | – | – | –
CC(C)(C)c1ccc2c(=O)n(CC(=O)C[C@@H]3CCCCN3)cnc2c1 | > 100 | 0 | 3.9 | > 64 | > 64 | > 64 | > 64 | > 64 | > 64 | > 64 | – | – | – | – | –
O=C(C[C@@H]1CCCCN1)Cn1cnc2cccnc2c1=O | > 100 | 0 | 6.9 | > 64 | > 64 | > 64 | > 64 | > 64 | > 64 | > 64 | – | – | – | – | –
O=C(C[C@@H]1CCCCN1)Cn1cnc2cc3ccccc3cc2c1=O | > 100 | 0 | 7.9 | > 64 | > 64 | > 64 | > 64 | > 64 | > 64 | > 64 | – | – | – | – | –
O=C(C[C@@H]1CCCCN1)Cn1cnc2ccccc2c1=O | 18.3 | 1.3 | 15.7 | 64 (≈ 224 µM) | 32 (≈ 112 µM) | 64 (≈ 224 µM) | 16 (≈ 56.1 µM) | 32 (≈ 112 µM) | 32 (≈ 112 µM) | 32 (≈ 112 µM) | – | – | – | – | –
O=C(C[C@@H]1CCCCN1)Cn1cnc2cc(F)ccc2c1=O | 1.71 | 6.9 | 18.1 | 16 (≈ 52.7 µM) | 8 (≈ 26.4 µM) | 32 (≈ 105 µM) | 32 (≈ 105 µM) | 32 (≈ 105 µM) | 32 (≈ 105 µM) | 32 (≈ 105 µM) | – | – | – | – | –
O=C(C[C@@H]1CCCCN1)Cn1cnc2cc3c(cc2c1=O)OCO3 | 36.3 | 2.1 | 15.9 | > 64 | > 64 | > 64 | > 64 | > 64 | > 64 | > 64 | – | – | – | – | –
O=C(O)c1cn(C2CC2)c2cc(N3CCNCC3)c(F)cc2c1=O [CIPROFLOXACIN] | – | – | – | – | 2 (≈ 6.04 µM) | – | – | – | – | – | – | – | – | 16 | –
O=c1c2cc(Cl)c(Cl)cc2ncn1CCC[C@@H]1CCCCN1 | 6.8 | 2 | 12.4 | > 64 | > 64 | > 64 | > 64 | > 64 | > 64 | > 64 | – | – | – | – | –
CC1(C)S[C@@H]2[C@H](NC(=O)[C@H](N)c3ccccc3)C(=O)N2[C@H]1C(=O)O [AMPICILLIN] | – | – | – | – | 2 (≈ 5.72 µM) | 2 (≈ 5.72 µM) | – | – | – | – | – | – | – | – | –
COc1cc2ncn(CC(=O)C[C@@H]3CCCCN3)c(=O)c2cc1OC | > 100 | 0 | 4.2 | > 64 | > 64 | > 64 | > 64 | > 64 | > 64 | > 64 | – | – | – | – | –
O=C(C[C@@H]1CCCCN1)Cn1cnc2cc(F)c(F)cc2c1=O | 0.63 | 7.3 | 19.2 | 4 (≈ 12.4 µM) | 4 (≈ 12.4 µM) | 16 (≈ 49.8 µM) | 16 (≈ 49.8 µM) | 32 (≈ 99.6 µM) | 16 (≈ 49.8 µM) | 32 (≈ 99.6 µM) | 128 (≈ 398 µM) | 8 | – | – | 16
O=C(C[C@@H]1CCCCN1)Cn1cnc2ccc(C(F)(F)F)cc2c1=O | > 100 | 1.2 | 9.9 | 64 (≈ 181 µM) | 64 (≈ 181 µM) | 64 (≈ 181 µM) | 64 (≈ 181 µM) | 64 (≈ 181 µM) | 32 (≈ 90.6 µM) | 64 (≈ 181 µM) | – | – | – | – | –
